According to US20160122320A1, “USEFUL COMBINATIONS OF MONOBACTAM ANTIBIOTICS WITH BETA-LACTAMASE INHIBITORS” (Basilea Pharmaceutica AG, priority 2005, published 2016):
Where a name gives a salt, the structure may show the parent alone.

How the values were obtained:
Experiment in all cases: MIC, NCCLS broth microdilution
Type in all cases: cell-based
[1] = tested on: Stenotrophomonas malthophilia 1AC736; settings: Stenotrophomonas malthophilia 1AC736; MIC of antibiotic compound 1 with the labelled bridged monobactam of formula II and clavulanate, 4 mg/L each
Method: Antimicrobial activity of the compounds and of their combinations was determined against a selection of organisms according to the standard procedures described by the National Committee for Clinical Laboratory Standards (National Committee for Clinical Laboratory. Standards (2000). Methods for Dilution Antimicrobial Susceptibility Tests for Bacteria That Grow Aerobically-Fifth Edition: Approved Standard M7-A5. NCCLS, Wayne, Pa., USA).
In all cases the final concentration of DMSO incubated with the bacteria is less than or equal to 1%. […] Plates were incubated overnight at an appropriate temperature (30° C. or 37° C.) and optical densities assessed by eye. The MIC value is defined as the lowest compound concentration completely inhibiting visible growth of the test organism. When combinations between compounds of formula I with compounds of formula II and are evaluated the compounds of formula I are tested in dilution series as described above while the compounds of formula II and III-XIII were present in all wells at a constant concentration of 4 μg/mL each.

Enterobacter cloacae P99 = settings: MIC of antibiotic compound 1 with the labelled bridged monobactam of formula II and clavulanate, 4 mg/L each
[2] = tested on: Pseudomonas aeruginosa 1973E; settings: MIC of antibiotic compound 1 with the labelled bridged monobactam of formula II and clavulanate, 4 mg/L each
Summary of the method: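 NCCLS M7-A5 microdilution; DMSO ≤1% final; overnight, 30° C. or 37° C.; visual read. MIC = lowest conc. with no visible growth. Combos: formula I titrated, partners fixed at 4 μg/mL each.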

[3] = tested on: Pseudomonas aeruginosa MK1184; settings: MIC of antibiotic compound 1 with the labelled bridged monobactam of formula II and clavulanate, 4 mg/L each
[4] = tested on: Klebsiella pneumoniae CF104; settings: MIC of antibiotic compound 1 with the labelled bridged monobactam of formula II and clavulanate, 4 mg/L each
Serratia marcescens S6 = settings: MIC of antibiotic compound 1 with the labelled bridged monobactam of formula II and clavulanate, 4 mg/L each
Acinetobacter sp. J2 = settings: Acinetobacter sp. J2; MIC of antibiotic compound 1 with the labelled bridged monobactam of formula II and clavulanate, 4 mg/L each

**Q.** `O=C(NC1CC1)c1ccc[n+](CC(=O)N2CC[C@@H]3[C@H]2C(=O)N3S(=O)(=O)[O-])c1` [Compound 109, (1S,5R)-2-{2-[3-(N-cyclopropylcarbamoyl)pyridinium]acetyl}-7-oxo-2,6-diazabicyclo[3.2.0]heptane-6-sulfonate, inner salt] was tested. Which “MIC of antibiotic at fixed inhibitor concentration (4 mg/L)” value [1] did it give?
**A.** 0.125 µg/mL

**Q.** What about the “MIC of antibiotic at fixed inhibitor concentration (4 mg/L)” value (Enterobacter cloacae P99) of the same molecule?
**A.** 32 µg/mL

**Q.** And the “MIC of antibiotic at fixed inhibitor concentration (4 mg/L)” value [2]?
**A.** 4 µg/mL

**Q.** What about the “MIC of antibiotic at fixed inhibitor concentration (4 mg/L)” value [3] of the same molecule?
**A.** 16 µg/mL

**Q.** And the “MIC of antibiotic at fixed inhibitor concentration (4 mg/L)” value [4]?
**A.** 0.5 µg/mL

**Q.** What about the “MIC of antibiotic at fixed inhibitor concentration (4 mg/L)” value (Serratia marcescens S6) of the same molecule?
**A.** 0.125 µg/mL

**Q.** What about the “MIC of antibiotic at fixed inhibitor concentration (4 mg/L)” value (Acinetobacter sp. J2) of the same molecule?
**A.** 4 µg/mL

**Q.** `Cn1nnnc1SCC(=O)N1CC[C@@H]2[C@H]1C(=O)N2S(=O)(=O)[O-].[Na+]` [Compound 206] was tested. Which “MIC of antibiotic at fixed inhibitor concentration (4 mg/L)” value [1] did it give?
**A.** 0.125 µg/mL

**Q.** And the “MIC of antibiotic at fixed inhibitor concentration (4 mg/L)” value (Enterobacter cloacae P99)?
**A.** 8 µg/mL

**Q.** What about the “MIC of antibiotic at fixed inhibitor concentration (4 mg/L)” value [2] of the same molecule?
**A.** 4 µg/mL

**Q.** And the “MIC of antibiotic at fixed inhibitor concentration (4 mg/L)” value [3]?
**A.** >32 µg/mL

**Q.** What about the “MIC of antibiotic at fixed inhibitor concentration (4 mg/L)” value [4] of the same molecule?
**A.** 0.25 µg/mL

**Q.** And the “MIC of antibiotic at fixed inhibitor concentration (4 mg/L)” value (Serratia marcescens S6)?
**A.** 4 µg/mL

**Q.** And the “MIC of antibiotic at fixed inhibitor concentration (4 mg/L)” value (Acinetobacter sp. J2)?
**A.** 4 µg/mL

**Q.** Which “MIC of antibiotic at fixed inhibitor concentration (4 mg/L)” value [1] does the source give for `NC(=O)CNC(=O)c1ccc(NC(=O)N2CC[C@@H]3[C@H]2C(=O)N3S(=O)(=O)[O-])cc1.[Na+]` [Compound 312, Sodium(1S,5R)-2-(N-{4-[N-(carbamoylmethyl)carbamoyl]phenyl}carbamoyl)-7-oxo-2,6-diazabicyclo[3.2.0]heptane-6-sulfonate] here?
**A.** 0.125 µg/mL

**Q.** And the “MIC of antibiotic at fixed inhibitor concentration (4 mg/L)” value (Enterobacter cloacae P99)?
**A.** 8 µg/mL

**Q.** And the “MIC of antibiotic at fixed inhibitor concentration (4 mg/L)” value [2]?
**A.** 8 µg/mL

**Q.** What about the “MIC of antibiotic at fixed inhibitor concentration (4 mg/L)” value [3] of the same molecule?
**A.** >32 µg/mL

**Q.** And the “MIC of antibiotic at fixed inhibitor concentration (4 mg/L)” value [4]?
**A.** 4 µg/mL

**Q.** What about the “MIC of antibiotic at fixed inhibitor concentration (4 mg/L)” value (Serratia marcescens S6) of the same molecule?
**A.** 0.5 µg/mL

**Q.** What about the “MIC of antibiotic at fixed inhibitor concentration (4 mg/L)” value (Acinetobacter sp. J2) of the same molecule?
**A.** >32 µg/mL

**Q.** For `O=C(Nc1ccc(NC(=O)N2CC[C@@H]3[C@H]2C(=O)N3S(=O)(=O)O)cc1)N1CCNCC1` [Compound 326, (1S,5R)-7-oxo-2-{N-[4-(piperazinylcarbonylamino)phenyl]carbamoyl}-2,6-diazabicyclo[3.2.0]heptane-6-sulfonic acid], which “MIC of antibiotic at fixed inhibitor concentration (4 mg/L)” value [1] is on record?
**A.** 0.125 µg/mL

**Q.** And the “MIC of antibiotic at fixed inhibitor concentration (4 mg/L)” value (Enterobacter cloacae P99)?
**A.** 8 µg/mL

**Q.** And the “MIC of antibiotic at fixed inhibitor concentration (4 mg/L)” value [2]?
**A.** 4 µg/mL

**Q.** And the “MIC of antibiotic at fixed inhibitor concentration (4 mg/L)” value [3]?
**A.** 32 µg/mL

**Q.** And the “MIC of antibiotic at fixed inhibitor concentration (4 mg/L)” value [4]?
**A.** >32 µg/mL

**Q.** What about the “MIC of antibiotic at fixed inhibitor concentration (4 mg/L)” value (Serratia marcescens S6) of the same molecule?
**A.** 0.125 µg/mL

**Q.** What about the “MIC of antibiotic at fixed inhibitor concentration (4 mg/L)” value (Acinetobacter sp. J2) of the same molecule?
**A.** 4 µg/mL

**Q.** Which “MIC of antibiotic at fixed inhibitor concentration (4 mg/L)” value [1] does the source give for `CN(C)c1ccc(NC(=O)N2CC[C@@H]3[C@H]2C(=O)N3S(=O)(=O)[O-])cc1.[Na+]` [Compound 309, Sodium(1S,5R)-2-{N-[4-(dimethylamino)phenyl]carbamoyl}-7-oxo-2,6-diazabicyclo[3.2.0]heptane-6-sulfonate] here?
**A.** 0.125 µg/mL

**Q.** What about the “MIC of antibiotic at fixed inhibitor concentration (4 mg/L)” value (Enterobacter cloacae P99) of the same molecule?
**A.** 32 µg/mL

**Q.** And the “MIC of antibiotic at fixed inhibitor concentration (4 mg/L)” value [2]?
**A.** 4 µg/mL

**Q.** What about the “MIC of antibiotic at fixed inhibitor concentration (4 mg/L)” value [3] of the same molecule?
**A.** >32 µg/mL

**Q.** What about the “MIC of antibiotic at fixed inhibitor concentration (4 mg/L)” value [4] of the same molecule?
**A.** 2 µg/mL

**Q.** What about the “MIC of antibiotic at fixed inhibitor concentration (4 mg/L)” value (Serratia marcescens S6) of the same molecule?
**A.** 0.5 µg/mL

**Q.** And the “MIC of antibiotic at fixed inhibitor concentration (4 mg/L)” value (Acinetobacter sp. J2)?
**A.** >32 µg/mL

**Q.** For `O=C(N[C@@H]1CCNC1)c1ccc[n+](CC(=O)N2CC[C@@H]3[C@H]2C(=O)N3S(=O)(=O)[O-])c1` [Compound 125, 2-(2-{3-[N-((3R)pyrrolidin-3-yl)carbamoyl]pyridinium}acetyl)(1S,5R)-7-oxo-2,6-diazabicyclo[3.2.0]heptane-6-sulfonate, inner salt], which “MIC of antibiotic at fixed inhibitor concentration (4 mg/L)” value [1] is on record?
**A.** 0.125 µg/mL

**Q.** What about the “MIC of antibiotic at fixed inhibitor concentration (4 mg/L)” value (Enterobacter cloacae P99) of the same molecule?
**A.** 32 µg/mL

**Q.** What about the “MIC of antibiotic at fixed inhibitor concentration (4 mg/L)” value [2] of the same molecule?
**A.** 8 µg/mL

**Q.** What about the “MIC of antibiotic at fixed inhibitor concentration (4 mg/L)” value [3] of the same molecule?
**A.** 16 µg/mL

**Q.** What about the “MIC of antibiotic at fixed inhibitor concentration (4 mg/L)” value [4] of the same molecule?
**A.** <0.06 µg/mL

**Q.** What about the “MIC of antibiotic at fixed inhibitor concentration (4 mg/L)” value (Serratia marcescens S6) of the same molecule?
**A.** 0.5 µg/mL

**Q.** And the “MIC of antibiotic at fixed inhibitor concentration (4 mg/L)” value (Acinetobacter sp. J2)?
**A.** 4 µg/mL
